Experimental findings from patent publication US20250000826A1, “APPLICATION OF BENZANILIDE COMPOUND IN TUMOR TREATMENT” (NANJING SHIJIANG MEDICINE TECHNOLOGY CO., LTD, priority 2021, published 2025) are described below.

What all share (assay type): cell-based
The test system of assay [1] is NCI-H82 (human small cell lung cancer cell). As to the kind of experiment: CellTiter-Glo cell viability, NCI-H82. To be noted: NCI-H82, sensitive group, 3-4 days of culture, n=3, read-out: IC50 (μM), inhibitory effect on cell line. As for the experimental part: (§1) Cell viability was detected using the Promega CellTiter-Glo kit, cell viability was determined by directly measuring intracellular ATP content. In the experiment, the IC50 value of niclosamide on various tumor cell lines was determined. Each tumor cell was cultured separately in relevant medium (+p/s), and was incubated for 3 h, then the gradient diluted niclosamide was added. After 3-4 days of culture, the relevant IC50 (50% inhibiting concentration) was measured (n=3). The name, source and culture conditions of each tumor cell line were as follows: Cell line NCI-H82 (ATCC, No. HTB-175) was cultured in 10% fetal bovine serum-containing RPMI1640 medium (+P/S).

Assay [2] concerns GB-1 (human glioblastoma cell). The experiment in a line: CellTiter-Glo cell viability, GB-1. The conditions noted are these: GB-1, insensitive group, 3-4 days of culture, n=3, read-out: IC50 (μM), inhibitory effect on cell line. The procedure: as §1, with “(+P/S). Cell line GB-1 (JCRB, No. IF050489) was cultured in 10% fetal bovine serum-containing […] DMEM medium (+P/S).” for “(+P/S).”

Assay [3] deals with SF-126 (human glioblastoma multiforme cell). The experiment in a line: CellTiter-Glo cell viability, SF-126. To be noted: SF-126, insensitive group, 3-4 days of culture, n=3, read-out: IC50 (μM), inhibitory effect on cell line. The procedure: as §1, with “(+P/S). Cell line SF126 (JCRB. No. 1F050286) was cultured in 10% fetal bovine serum-containing EMEM medium (+P/S).” for “(+P/S).”

The subject of assay [4] is SW48 (human colon adenocarcinoma cell). The experiment in a line: CellTiter-Glo cell viability, SW48. To be noted: SW48, sensitive group, 3-4 days of culture, n=3, read-out: IC50 (μM), inhibitory effect on cell line. As for the experimental part:
as §1, with “(+P/S). Cell line SW48 (ATCC, No. CCL-231) was cultured in 10% fetal bovine serum-containing Leibovitz's L-15 medium (+P/S).” for “(+P/S).”

Assay [5] concerns NCI-H82 (ov-NNMT) cell. The experiment in a line: CellTiter-Glo cell viability, NNMT protein-overexpressing NCI-H82 cell. To be noted: Homo sapiens; NCI-H82 with NNMT gene inserted by viral vector, n=3. The procedure:
(§2) The NNMT protein-overexpressing NCI-H82 cell (NCI-H82 (ov-NNMT)) was obtained by inserting the NNMT gene into NCI-H82 cell using a viral vector. The control NCI-H82 cell (NCI-H82 (Con)) was obtained by transfecting NCI-H82 cell with empty virus vector without carrying NNMT gene. The IC50 value of niclosamide on control NCI-H82 cell (NCI-H82 (Con)) and NNMT protein-overexpressing NCI-H82 cell (NCI-H82 (ov-NNMT)) was determined using Promega CellTiter-Glo kit which detected cell viability by directly measuring intracellular ATP content (n=3), the experiment result was shown in Table 4 below: […]

The subject of assay [6] is CFPAC-1 (human pancreatic cancer cell). As to the kind of experiment: CellTiter-Glo cell viability, CFPAC-1. To be noted: CFPAC-1, insensitive group, 3-4 days of culture, n=3, read-out: IC50 (μM), inhibitory effect on cell line. As for the experimental part:
as §1, with “(+P/S). Cell line CFPAC-1 (ATCC, No. CRL-1918) was cultured in 10% fetal bovine serum-containing IMDM medium (+P/S).” for “(+P/S).”

For assay [7], the system named is WSU-DLCL2 (human diffuse large B-cell lymphoma). The experiment in a line: CellTiter-Glo cell viability, WSU-DLCL2. To be noted: WSUDLCL2, WSU-DLCL2, sensitive group, 3-4 days of culture, n=3, read-out: IC50 (μM), inhibitory effect on cell line. As for the experimental part: as §1, with “(+P/S). Cell line WSU-DLCL2 (DSMZ, No. ACC-575) was cultured in 10% fetal bovine serum-containing RPMI1640 medium (+P/S).” for “(+P/S).”

In assay [8] the test system is G-401 (human renal carcinoma Wilms cell). The experiment in a line: CellTiter-Glo cell viability, G-401. The conditions noted are these: G-401, sensitive group, 3-4 days of culture, n=3, read-out: IC50 (μM), inhibitory effect on cell line. The procedure: as §1, with “(+P/S). Cell line G401 (ATCC, No. CRL-1441) was cultured in 10% fetal bovine serum-containing McCoy's 5a medium (+P/S).” for “(+P/S).”

Assay [9] concerns 786-0 (clear cell renal cell adenocarcinoma cell). The experiment in a line: CellTiter-Glo cell viability, 786-0. The conditions noted are these: Homo sapiens; 786-0, insensitive group, 3-4 days of culture, n=3; read-out: IC50 (μM), inhibitory effect on cell line. The procedure:
as §1, with “(+P/S). Cell line 786-0 (ATCC, No. CRL-1932) was cultured in 10% fetal bovine serum-containing RPMI1640 medium (+P/S).” for “(+P/S).”

In assay [10] the test system is NCI-H82 (Con) cell. The experiment in a line: CellTiter-Glo cell viability, control NCI-H82 cell. To be noted: Homo sapiens; NCI-H82 transfected with empty virus vector, n=3. The procedure: as §2
Assay [11] concerns MDA-MB-453 (breast cancer cell). As to the kind of experiment: CellTiter-Glo cell viability, MDA-MB-453. The conditions noted are these: Homo sapiens; MDA-MB-453, sensitive group, 3-4 days of culture, n=3; read-out: IC50 (μM), inhibitory effect on cell line. As for the experimental part: as §1, with “(+P/S). Cell line MDA-MB-453 (ATCC, No. HTB-131) was cultured in 10% fetal bovine serum-containing Leibovitz's L-15 medium (+P/S).” for “(+P/S).”

Regarding `O=C(Nc1ccc([N+](=O)[O-])cc1Cl)c1cc(Cl)ccc1O` [Niclosamide, niclosamide], the IC50 was 0.13 µM in assay [1]; 6.68 µM in assay [2]; 16.2 µM in [3]; 0.72 µM in [4]; 420 nM in [5]; above 50 µM in [6]. The IC50 in [7] is 0.21 µM; in assay [8], 0.64 µM; in [9] it was above 50 µM; in [10], 120 nM; in [11] it was 0.47 µM.
